Like-named read-outs stand apart in the source and are kept apart here.
Assays:
MT4 = experiment: Cytostatic effect (cell proliferation, Coulter count); assay type: cell-based; details: Homo sapiens, cell number reduced by 50%, 68-72 hours, read-out: ID50 MT4
Protocol: (§1) Raji/0 cells and Raji/TK⁻ (a thymidine (dThd) kinasedeficient mutant cell line derived from wild-type Raji/0 cells, were grown in 75 cm² plastic tissue culture flasks (International Medical, Brussels, Belgium), in Eagle's minimal essential medium, supplemented with 10% (v/v) inactivated foetal calf serum (Gibco, Glasgow, Scotland, U.K.), 2 mM L-glutamine (Flow Laboratories, Irvine, Scotland, U.K.) and 1% THM (5 mM Tes, 7.5 mM Hepes and 5 mM (MOPS) buffer ([…]). The Raji/0 and Raji/TK⁻ cells were characterized according to J. Balzarini et al (Biochem. Pharmacol. 31, 1089-1095 (1982)). Molt/4F, CEM and H9 cells were grown in Eagle's minimal essential medium, supplemented with 10% (v/v) inactivated foetal calf serum and 2 mM L-glutamine. MT4 cells were cultivated in RPMI 1640 medium (Gibco) containing 20 mM Hepes buffer, 10% (v/v) inactivated foetal calf serum (Gibco) and 2 mM L-glutamine (Flow Laboratories).
(§2) All assays were performed in flat bottom Microtest III Plates (96 wells) (Falcon) as previously described by E. De Clercq et al (Mol. Pharmacol. 19, 321-330 (1981)). Briefly, the cells were suspended in growth medium and added to the microplate wells at a density of 7.5 x 10⁴ cells/well (200 µ1) in the presence of varying concentrations of the test compounds. The cells were then allowed to proliferate for 68-72 hours at 37°C in a humidified, CO₂-controlled atmosphere. At the end of the incubation period, the cells were counted with a Coulter Counter (Coulter Electronics Ltd., Harpenden Herts, U.K.). The 50% inhibitory dose (ID₅₀) was defined as the concentration of compound that reduced the number of cells by 50%.

Raji/TK- = experiment: as above; assay type: cell-based; details: Homo sapiens, cell number reduced by 50%, 68-72 hours, read-out: ID50 Raji/TK-
Protocol: as §1, §2

H9 = experiment: as above; assay type: cell-based; details: Homo sapiens, cell number reduced by 50%, 68-72 hours, read-out: ID50 H9
Protocol: as §1, §2

Raji/0 = experiment: as above; assay type: cell-based; details: Homo sapiens, cell number reduced by 50%, 68-72 hours, read-out: ID50 Raji/0
Protocol: as §1, §2

Molt/4F = experiment: as above; assay type: cell-based; details: Homo sapiens, cell number reduced by 50%, 68-72 hours, read-out: ID50 Molt/4F
Protocol: as §1, §2

CEM = experiment: as above; assay type: cell-based; details: Homo sapiens, CCRF-CEM; cell number reduced by 50%, 68-72 hours; read-out: ID50 CEM
Protocol: as §1, §2

Molt/4F dThd kinase = biological target: T1, Molt/4F dThd kinase (Homo sapiens, UniProt P04183); experiment: Inhibition of dThd kinase (Lineweaver-Burk); assay type: biochemical; details: for inhibitory activity against dThd kinase (in words): at a concentration as high as 750 µM or 1000 µM; for Ki: substrate (2-14C)dThd; for Type of inhibition: with respect to dThd
T1 construct: endogenous in cells; host or cells: Molt/4F cells (sonicated extract, 30-70% ammonium sulfate fraction, dialyzed)
T1 sequence (P04183 1-234): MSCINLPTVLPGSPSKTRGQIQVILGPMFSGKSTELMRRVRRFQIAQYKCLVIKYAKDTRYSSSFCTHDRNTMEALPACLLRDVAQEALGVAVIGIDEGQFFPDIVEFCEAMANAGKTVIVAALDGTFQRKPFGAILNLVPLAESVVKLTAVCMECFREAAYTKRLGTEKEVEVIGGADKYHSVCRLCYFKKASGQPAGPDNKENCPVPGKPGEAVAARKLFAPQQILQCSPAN
Protocol: (§3) ddUrd and the 3′-fluoro- and 3′-azido-substituted pyrimidine 2′,3′-dideoxynucleoside analogues were evaluated for their inhibitory effect against dThd and dCyd kinase.
(§4) dThd kinase and dCyd kinase were prepared from exponen tially growing Molt/4F cells, which were first washed (2x) with phosphate-buffered saline at 4° and then homogenized by sonication. The suspensions were clarified by centrifugation at 25,000-27,000 x g for 30 min. The 30-70% (NH₄)₂SO₄ precipitate of the supernatant was resuspended in buffer containing 10 uM potassium phosphate, pH 7.5, 10 mM β-mercaptoethanol and 0.1 M KCl, dialyzed against the same buffer, and used for the dThd kinase and the dCyd kinase assays. In these experiments, (2-¹⁴C)dThd and (U-¹⁴C)dCyd served as the radiolabelled substrates. The apparent Km and Ki values were derived from Lineweaver-Burk plots, using a linear regression analysis program.

[1] = tested on: human B- and T-cell lines; experiment: Cytostatic effect, pooled over several cell lines; assay type: cell-based; details: for IC50: read-out: ID50 (the source's name)
Protocol: as §2, with “Clercq” left out, “10^4” for “10⁴”, “μ1)” for “µ1)”, “CO2-controlled” for “CO₂-controlled”, “U.K.).” for “U.K.). The 50% inhibitory dose (ID₅₀) was defined as the concentration of compound that reduced the number of cells by 50%.”

Molt/4F dCyd kinase = biological target: T2, Molt/4F dCyd kinase (Homo sapiens, UniProt P27707); experiment: Inhibition of dCyd kinase (Lineweaver-Burk); assay type: biochemical; details: for Type of inhibition: with respect to dCyd
T2 construct: endogenous in cells; host or cells: Molt/4F cells (sonicated extract, 30-70% ammonium sulfate fraction, dialyzed)
T2 sequence (P27707 whole entry): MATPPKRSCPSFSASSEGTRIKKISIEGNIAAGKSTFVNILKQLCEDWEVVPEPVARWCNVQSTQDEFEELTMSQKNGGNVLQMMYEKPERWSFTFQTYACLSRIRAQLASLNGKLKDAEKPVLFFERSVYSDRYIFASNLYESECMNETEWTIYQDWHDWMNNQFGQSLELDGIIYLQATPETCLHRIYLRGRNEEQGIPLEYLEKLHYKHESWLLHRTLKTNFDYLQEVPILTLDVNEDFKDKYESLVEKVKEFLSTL
Protocol: as §3
as §4, with “program. The assay procedures have been described in detail (J. Balzarini et al, (1983) and J. Balzarini et al, Biochem. Pharmacol. 31, 3673-3682 (1982)).” for “program.”

[2] = Homo sapiens, CEM and Molt/4F cells, range over both compounds and both cell lines
[3] = Homo sapiens, Raji cells, range over both compounds

| Structure (SMILES) | IC50 (MT4) | IC50 (Raji/TK-) | IC50 (H9) | IC50 (Raji/0) | IC50 (Molt/4F) | IC50 (CEM) | inhibitory activity against dThd kinase (in words) (Molt/4F dThd kinase) | Ki (Molt/4F dThd kinase; dThd kinase) | Ki/Km (Molt/4F dThd kinase; dThd kinase, Km 2.5 to 6.6 µM) | Ki/Km (Molt/4F dThd kinase) | Type of inhibition (Molt/4F dThd kinase; dThd kinase) | IC50 [1, 2] | IC50 [1, 3] | Ki/Km (Molt/4F dCyd kinase; Km 5.2 to 6.4 µM) | Ki (Molt/4F dCyd kinase; substrate (U-14C)dCyd) | Type of inhibition (Molt/4F dCyd kinase) | fold higher susceptibility of CEM cells to the cytostatic action than the other cell lines ([1]; CEM versus other cell lines) | IC50 ([1]; the other cell lines (all but CEM)) |
| --- | --- | --- | --- | --- | --- | --- | --- | --- | --- | --- | --- | --- | --- | --- | --- | --- | --- | --- |
| CCc1cn([C@H]2CC[C@@H](CO)O2)c(=O)[nH]c1=O [ddEtUrd, 2′,3′-Dideoxy-5-ethyluridine] | 326 µM | > 1000 µM | > 1000 µM | > 1000 µM | > 1000 µM | > 1000 µM | no inhibitory activity | > 750 µM | >200 | – | – | – | – | – | – | – | – | – |
| [N-]=[N+]=N[C@H]1C[C@H](n2ccc(=O)[nH]c2=O)O[C@@H]1CO [AzddUrd, 3′-azido-2′,3′-dideoxyuridine] | 364 µM | > 1000 µM | > 1000 µM | ≥ 1000 µM | > 1000 µM | 423 µM | – | 224 µM | – | 71 | competitive | – | – | – | – | – | – | – |
| CCc1cn([C@H]2C[C@H](F)[C@@H](CO)O2)c(=O)[nH]c1=O [FddEtUrd, 3′-fluoro-2′,3′-dideoxy-5-ethyluridine] | > 1000 µM | > 1000 µM | > 1000 µM | > 1000 µM | > 1000 µM | > 1000 µM | – | 266 µM | 72 | – | competitive | – | – | – | – | – | – | – |
| O=c1ccn([C@H]2CC[C@@H](CO)O2)c(=O)[nH]1 [ddUrd, 2′-3′-dideoxyuridine] | ≥ 1000 µM | > 1000 µM | > 1000 µM | > 1000 µM | > 1000 µM | > 1000 µM | no inhibitory activity | > 1000 µM | – | >250 | – | – | – | – | – | – | – | – |
| Nc1ccn([C@H]2C[C@H](F)[C@@H](CO)O2)c(=O)n1 [FddCyd, 3′-fluoro-2′,3′-dideoxycytidine] | > 1000 µM | 118 µM | > 1000 µM | 95 µM | 24 µM | 7 µM | – | – | – | – | – | 6 to 24 µM | 23 to 95 µM | 63 | 360 µM | competitive | – | – |
| O=c1ccn([C@H]2C[C@H](F)[C@@H](CO)O2)c(=O)[nH]1 [FddUrd, 3′-fluoro-2′,3′-dideoxyuridine] | > 1000 µM | > 1000 µM | > 1000 µM | > 1000 µM | ≥ 1000 µM | 14 µM | – | 833 µM | 171 | – | competitive | – | – | – | – | – | 70 fold | > 1000 µM |
| Nc1ccn([C@H]2CC[C@@H](CO)O2)c(=O)n1 [ddCyd, 2′,3′-Dideoxycytidine] | ≥ 1000 µM | 28 µM | 243 µM | 23 µM | 7 µM | 6 µM | – | – | – | – | – | 6 to 24 µM | 23 to 95 µM | – | – | competitive | – | – |
| CCc1cn([C@H]2C[C@H](N=[N+]=[N-])[C@@H](CO)O2)c(=O)[nH]c1=O [AzddEtUrd, 3′-azido-2′,3′-dideoxy-5-ethyluridine] | 160 µM | > 1000 µM | > 1000 µM | > 1000 µM | > 1000 µM | > 1000 µM | – | 175 µM | 28 | – | competitive | – | – | – | – | – | – | – |

Source: EP0316592A2, “3'-Fluoro-2',3'-dideoxyuridine, and its therapeutic application” (Stichting REGA V.Z.W., priority 1987, dated 1989)
